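96-well plates; 48 h exposure; 5 concentrations. Endpoints by linear interpolation between flanking doses. Not reached: highest tested concentration assigned. The concentration for 50% growth inhibition is given as GI50. TGI: concentration producing complete growth inhibition.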

Some test systems named below: SK-MEL-5 melanoma; EKVX NSCLC; SK-OV-3 ovarian; M14 melanoma; CCRF-CEM leukemia; UACC-257 melanoma; OVCAR-5 ovarian; KM12 colon; RPMI-8226 leukemia.
Holding throughout (test): NCI anticancer screen, dose series, 48 h

Regarding `CN(C)CCNC(=O)c1cccc2ccc(-c3ccc(-c4ccccc4)cc3)nc12`, the TGI in the assay with SK-MEL-5 melanoma was 3.1 µM; with EKVX NSCLC, 24.6 µM; with SK-OV-3 ovarian, 31.5 µM; in the assay with M14 melanoma it was 3.48 µM; in the assay on CCRF-CEM leukemia, 11.5 µM; in the assay with UACC-257 melanoma, 3.58 µM. The figures for the TGI with OVCAR-5 ovarian and in the assay with KM12 colon were 13.9 µM and 5.6 µM, respectively.

Regarding `O=C1C2C3C=C4c5ccccc5N(c5ccccc5)C4(C2C(=O)N1c1ccc(Br)cc1)[C@H]1C(=O)N(c2ccc(Br)cc2)C(=O)[C@@H]31` (stereo partly drawn), the TGI in the assay with SK-MEL-5 melanoma, in the assay on RPMI-8226 leukemia, with EKVX NSCLC, with SK-OV-3 ovarian, with M14 melanoma and in the assay on CCRF-CEM leukemia was greater than 100 µM each time. Moreover, the TGI in the assay on UACC-257 melanoma, with OVCAR-5 ovarian and with KM12 colon was greater than 100 µM throughout.

Regarding `O=C(C/C(CCC(=O)N(Cc1ccccc1)Cc1ccccc1)=N/Nc1ccc([N+](=O)[O-])cc1[N+](=O)[O-])c1ccccc1`, the TGI with RPMI-8226 leukemia, in the assay with EKVX NSCLC, with SK-OV-3 ovarian, in the assay with M14 melanoma, in the assay with CCRF-CEM leukemia and in the assay on UACC-257 melanoma was greater than 100 µM in each case. Further, the TGI in the assay with OVCAR-5 ovarian and in the assay on KM12 colon was greater than 100 µM throughout.

Regarding `Cc1nc2sccn2c1C(=O)NC(=O)Nc1ccc(Cl)cc1`, the TGI with SK-MEL-5 melanoma, in the assay on RPMI-8226 leukemia, in the assay with EKVX NSCLC, in the assay with M14 melanoma, in the assay with CCRF-CEM leukemia and in the assay with UACC-257 melanoma was greater than 100 µM in each case. Further, the TGI with OVCAR-5 ovarian and in the assay on KM12 colon was greater than 100 µM in each case.

As to `Cn1c(=O)c2[nH]cnc2n(CC(N)=O)c1=O`, the TGI in the assay on SK-MEL-5 melanoma, in the assay on RPMI-8226 leukemia, in the assay on EKVX NSCLC, in the assay on SK-OV-3 ovarian, in the assay with M14 melanoma and with CCRF-CEM leukemia was greater than 100 µM throughout. The compound also registered a TGI in the assay with KM12 colon greater than 100 µM.

In the case of `COC(=O)/C=c1\s/c(=C\C(=O)OC)c2ccccc12`, the TGI in the assay on SK-MEL-5 melanoma, with RPMI-8226 leukemia, in the assay on EKVX NSCLC, in the assay on SK-OV-3 ovarian, in the assay on M14 melanoma and in the assay with CCRF-CEM leukemia was greater than 100 µM each time. Besides, the TGI in the assay on UACC-257 melanoma, with OVCAR-5 ovarian and with KM12 colon was greater than 100 µM each time.

As for `COc1cc2c(cc1C1=NC(C)(C)CO1)OCO2`, the TGI in the assay with SK-MEL-5 melanoma, in the assay on RPMI-8226 leukemia, with EKVX NSCLC, in the assay with SK-OV-3 ovarian, with M14 melanoma and with CCRF-CEM leukemia was greater than 100 µM in each case. Also, the TGI in the assay on UACC-257 melanoma and with KM12 colon was greater than 100 µM throughout.

`N#Cc1ccc2cc3c(cc2c1)OCO3`: the TGI with RPMI-8226 leukemia, with SK-OV-3 ovarian, with M14 melanoma, with CCRF-CEM leukemia, in the assay with OVCAR-5 ovarian and with KM12 colon was greater than 100 µM throughout.

For the compound `COC1C2c3cc4c(cc3CC(C#N)(c3ccccc32)N1C(=O)c1ccccc1)OCO4` (stereo not drawn), the TGI with SK-MEL-5 melanoma, in the assay on RPMI-8226 leukemia, in the assay on EKVX NSCLC, with SK-OV-3 ovarian, with M14 melanoma and in the assay on CCRF-CEM leukemia was greater than 100 µM in each case. Moreover, the TGI in the assay on UACC-257 melanoma, in the assay with OVCAR-5 ovarian and in the assay on KM12 colon was greater than 100 µM each time.

As for `O=c1cc(-c2ccccc2)oc2cc(OC/C(=N/O)c3ccc(F)cc3)ccc12`, the GI50 in the assay with SK-MEL-5 melanoma was 8.75 µM; in the assay with RPMI-8226 leukemia, 15.9 µM; with EKVX NSCLC, 17.2 µM; with SK-OV-3 ovarian, 47.9 µM; with M14 melanoma, 46.7 µM; in the assay with CCRF-CEM leukemia it was 23.7 µM. In addition, the GI50 in the assay on UACC-257 melanoma was 35.3 µM; in the assay with OVCAR-5 ovarian, greater than 50 µM; in the assay on KM12 colon it was 11.3 µM. Besides, the TGI in the assay with SK-MEL-5 melanoma was 21.1 µM; with RPMI-8226 leukemia, greater than 50 µM; with EKVX NSCLC, greater than 50 µM; in the assay on SK-OV-3 ovarian, greater than 50 µM; with M14 melanoma, greater than 50 µM; in the assay on CCRF-CEM leukemia, greater than 50 µM. The TGI with UACC-257 melanoma is greater than 50 µM; with OVCAR-5 ovarian it was greater than 50 µM; in the assay on KM12 colon, 29.2 µM.

For `C/C=C/COC(=O)CO[N+](=O)[O-]`, the TGI in the assay with RPMI-8226 leukemia, with EKVX NSCLC, with SK-OV-3 ovarian, in the assay on M14 melanoma, in the assay with CCRF-CEM leukemia and in the assay with UACC-257 melanoma was greater than 100 µM in each case. Moreover, the TGI with OVCAR-5 ovarian and with KM12 colon was greater than 100 µM throughout.

With `S=C=NCCc1ccccc1`, the TGI came to 1.39 µM with SK-MEL-5 melanoma; 2.04 µM with RPMI-8226 leukemia; 30.4 µM in the assay with EKVX NSCLC; 3.24 µM in the assay with SK-OV-3 ovarian; 1.94 µM in the assay with M14 melanoma; 4.25 µM in the assay on CCRF-CEM leukemia. The values for the TGI with UACC-257 melanoma, with OVCAR-5 ovarian and in the assay on KM12 colon were 2.75 µM, 2.96 µM and 1.48 µM, respectively.

As for `O=c1[nH]c(=O)n(C2OC(CO)C(O)C2O)cc1OCC(F)(F)F` (stereo not drawn), the TGI in the assay with SK-MEL-5 melanoma, with RPMI-8226 leukemia, in the assay with EKVX NSCLC, in the assay with SK-OV-3 ovarian, in the assay with M14 melanoma and with CCRF-CEM leukemia was greater than 100 µM throughout. For the same compound, the TGI in the assay on UACC-257 melanoma, in the assay on OVCAR-5 ovarian and in the assay with KM12 colon was greater than 100 µM throughout.

For `C=CCOC(=O)C1CCC(=O)N1C(=O)C(Cl)Cl` (stereo not drawn), the TGI in the assay with SK-MEL-5 melanoma, with RPMI-8226 leukemia, in the assay with EKVX NSCLC, with SK-OV-3 ovarian, with M14 melanoma and with CCRF-CEM leukemia was greater than 100 µM in each case. Further, the TGI in the assay with UACC-257 melanoma, with OVCAR-5 ovarian and in the assay with KM12 colon was greater than 100 µM throughout.

As for `c1ccc(P(=C2c3ccccc3-c3ccccc32)(c2ccccc2)c2ccccc2)cc1`, the TGI with SK-MEL-5 melanoma worked out at 3.96 µM; with EKVX NSCLC, 61.3 µM; in the assay with SK-OV-3 ovarian it was 80.1 µM; in the assay on M14 melanoma, 32.6 µM; in the assay on CCRF-CEM leukemia, 8.34 µM; with UACC-257 melanoma it was 27.3 µM. Further, the TGI came out at 48.3 µM with OVCAR-5 ovarian and 5.58 µM in the assay with KM12 colon.
